# Results taken from patent US20090042861A1, “Prophylactic or Therapeutic Agent for Depression or Anxiety Disorder” (Takeda Pharmaceutical Company Limited, priority 2005, published 2009).
# Assays:
# [1] = system: male Wister (Jcl) rats; test: Water-drinking conflicting test; assay type: in vivo, rat; settings: Example 1
# Description: Animal: male Wister (Jcl) rats were purchased at the age of 8 weeks old, and used at the age of 9 weeks old.
# First, rats were put in a separate cage, and abstained from water for two days under light-dark (12-hour cycle) condition. On the day of experiment, rats were habituated to the experiment room for more than 60 minutes, and administered intraperitoneally with 30 mg/kg of compound A, 30 mg/kg of melatonin or vehicle, and then test was carried out 30 minutes after the administration.
# The drug used (compound A, melatonin) was suspended in 0.5% methylcellulose physiological saline to adjust dosage to 2 mL/kg, and administered intraperitoneally. To the vehicle administration group, a 0.5% methylcellulose physiological saline was administered in the same way. All administrations and trials were performed between 9:00 and 12:00.
# In the present experiment, when the animals pre-raised under a water-deprived condition drink water, they are placed in a conflicting state that they get electroshocked under the following condition.
# Test Time: 300 seconds, Shock Condition: in case either 20 times of lick frequency or 2 seconds of lick time is satisfied
# Shock ON Time: 2 seconds, Time-out: 180 seconds, Stimulus Intensity: 0.6 mA
# Animal: male Wister (Jcl) rats were purchased at the age of 8 weeks old, and used at the age of 9 weeks old. Drug Administration Group and Test Method: Test was carried out for the following conditions. (each group n=10)
# Compound A and Diazepam were suspended in 0.5% methylcellulose solution to adjust dosage to 2 mL/kg, and administered intraperitoneally. To control group, a 0.5% methylcellulose physiological saline for injection was administered as vehicle. As a drug solution to be combined, a drug solution having twice concentration of final concentration was prepared, and adjusted to final concentration by mixing equal amounts. A dose of 2 mL/kg was administered intraperitoneally, respectively. All administrations and trials were performed between 9:00 and 13:00.
# First, rats were put in a separate cage, and abstained from water for two days under light-dark (12-hour cycle) condition. On the day of experiment, rats were habituated to the experiment room for more than 60 minutes, and each drug was administered intraperitoneally, and then test was carried out 30 minutes after the administration.
# Significant difference test was performed with using Williams' test for vehicle administration group and multigroup drug administration groups. t-Test was used for vehicle administration group and single drug administration groups. A dose of compound A (0.3, 10 and 30 mg/kg) and 0.3 mg/kg of Diazepam were administered in combination.
# [2] = system: male Wister (Jcl) rats; test: Elevated plus-maze test; assay type: in vivo, rat; settings: Example 3
# Description: Animal: male Wister (Jcl) rats were purchased at the age of 5 weeks old, and used at the age of 6 weeks old.
# An elevated plus-maze test equipment having arm 50 cm long by 10 cm wide was used. Its height was 40 cm, and the height of closed arm was adjusted to the same. Black was used as the color of wall. Lighting in experiment room was set to 5 lux of illuminance on the equipment.
# The animals were handled from 2 days before test. Test was carried out between 8 a.m. and […]., and the animals were naturalized in the conduct test room at a measurement illuminance from 1 hour before the start of test.
# The drug used (compound A, melatonin) was suspended in 0.5% methylcellulose physiological saline to adjust dosage to 2 mL/kg, and administered intraperitoneally. To the vehicle administration group, a 0.5% methylcellulose physiological saline was administered in the same way.
# In the elevated plus-maze test, the animal was put in the central region of maze with the head to the direction of closed arm, and the conduct of 5 minutes duration was observed. Measurement items were number of entries into open arms and time spent in open arms which were used as an indicator of anxiety conducts, and it was considered that the more the number of entries into open arms, time spent in open arms and dipping frequency are, the less the anxiety conducts are. Further, the number of entries into closed arms was counted, which was used as an indicator of amount of motor-activity. […] Test was performed with n=10 for each group. Trial was carried out over 2 days, and 2 days' data were summed up as one test.
# Significant difference test was performed with using Williams' test for vehicle administration group and multigroup drug administration groups.
# [3] = system: male ICR (Jcl) mice; test: Mouse tail suspension test; assay type: in vivo; settings: for moving power at the trial of tail suspension test: FIGS. 9, 10
# Description: Action on immobility and moving power in a single application test of Paroxetine and compound A Used Animals: male ICR (Jcl) mice of 6 weeks old were used. Drug Administration Group and Test Method: Test was carried out for the following conditions. (each group n=12)
# (§1) Paroxetine was dissolved in 0.5% methylcellulose physiological saline, and compound A was suspended in 0.5% methylcellulose aqueous solution for injection. To control group, a 0.5% methylcellulose physiological saline for injection was administered as vehicle. A dose of 20 ml/kg was administered intraperitoneally, respectively. Administration was carried out 30 minutes before trial of tail suspension.
# Animals were put in a 5-row-cage with 8 each cage, and fully habituated. Drug administrations and trials were performed between 13:00 and 17:00.
# An automated measuring equipment made according to the method of Steru (Psycopharmacology 85, 367-370, 1985) was used for measurement. The mouse was suspended by the tail in a soundproof box (16 cm×38 cm×33 cm) divided individually, and then the immobility rate of 10 minutes duration was measured. Tail suspension was carried out by fixing a 5 cm wire to a sensor and suspending the mouse with fixing its tail with a tape at the end of the wire. By weighing every 10 msec, the movement of the mouse was calculated through A/D converter as moving power for one second. The moving power of less than 1% of body weight of mouse was considered to be in the immobile state, and the immobility rate for every one minute was measured. Test was carried out for 10 minutes, and all the experiments were controlled with personal computer (NEC-9801).
# Action on immobility and moving power in a combined application test of Paroxetine and compound A Used Animals: male ICR (Jcl) mice of 6 weeks old were used. Drug Administration Group and Test Method: Test was carried out for the following conditions. (each group n=15-16)
# as §1, with “vehicle. As a drug solution to be combined, a drug solution having twice concentration of final concentration was prepared, and adjusted to final concentration by mixing equal amounts.” for “vehicle.”
smiles,measurement,setting,value
"CCC(=O)NCC[C@@H]1CCc2ccc3c(c21)CCO3 [Compound A, (S)-N-[2-(1,6,7,8-Tetrahydro-2H-indeno[5,4-b]furan-8-yl)ethyl]propionamide]",lick frequency,"[1]; 30 mg/kg intraperitoneally, test 30 minutes after administration, vs vehicle group, Williams' test, FIG. 1",significant increasing effect
same,shock frequency,"[1]; 30 mg/kg intraperitoneally, test 30 minutes after administration, vs vehicle group, Williams' test, FIG. 2",significant increasing effect
same,time spent in open arms,"[2]; intraperitoneal, 5 minutes observation, vs vehicle group, FIG. 5",an increase
same,number of entries into open arms,"[2]; intraperitoneal, 5 minutes observation, vs vehicle group, FIG. 6",an increase
same,immobility,"[3]; Example 4, single application, 3, 10 and 30 mg/kg (i.p.), 30 minutes before trial, FIGS. 7, 8",didn't have an affect
same,moving power at the trial of tail suspension test,"[3]; Example 4, single application, 3, 10 and 30 mg/kg (i.p.)",didn't have an affect
same,effect on the antidepressant action of Paroxetine,"[3]; Example 5, Compound A 1, 3 and 10 mg/kg with Paroxetine 1 mg/kg (i.p.)",enhances the antidepressant action of Paroxetine
CN1C(=O)CN=C(c2ccccc2)c2cc(Cl)ccc21 [Diazepam],effect in this system (control drug),"[1]; control drug, dose not given",exhibits an effect
same,effect in this system (control drug),"[2]; control drug, dose not given",exhibits an effect
Fc1ccc([C@@H]2CCNC[C@H]2COc2ccc3c(c2)OCO3)cc1 [Paroxetine],moving power at the trial of tail suspension test,"[3]; Example 4, single application, 0.3, 1, 3 and 10 mg/kg (i.p.), vs vehicle group",increase a little
COc1ccc2[nH]cc(CCNC(C)=O)c2c1 [melatonin],anti-conflicting effect,"[1]; 30 mg/kg intraperitoneally, test 30 minutes after administration, vs vehicle group, Williams' test","a little anti-conflicting effect was observed, but it was not a significant effect"
same,action in elevated plus-maze (open arm entries and time),"[2]; intraperitoneal, vs vehicle group, Williams' test",a significant action was not observed
